Measurements from ChEMBL document CHEMBL1201861, “Genomics of Drug Sensitity in Cancer screening data, Wellcome Trust Sanger Institute”.

Key:
Assay in all cases: cells
COR-L88 = type: functional, cell-based; conditions: Homo sapiens;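 further: growth inhibition of COR-L88 cells, read out with a cell viability assay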
Description: SANGER: Inhibition of human COR-L88 cell growth in a cell viability assay.

Ca-Ski = type: functional, cell-based; conditions: Homo sapiens;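 further: cell viability assay measuring inhibition of Ca-Ski cell growth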
Description: SANGER: Inhibition of human Ca-Ski cell growth in a cell viability assay.

Ca9-22 = type: functional, cell-based, Homo sapiens; conditions: Homo sapiens, Ca9-22;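 further: growth inhibition of Ca9-22 cells, read out with a cell viability assay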
Description: SANGER: Inhibition of human Ca9-22 cell growth in a cell viability assay.

DMS-273 = type: functional, cell-based, Homo sapiens; conditions: Homo sapiens, DMS-273
Description: SANGER: Inhibition of human DMS-273 cell growth in a cell viability assay.

DOK = type: functional, cell-based, Homo sapiens; conditions: Homo sapiens, DOK;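 further: cell viability assay read-out, values reflect inhibition of cell growth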
Description: SANGER: Inhibition of human DOK cell growth in a cell viability assay.

DU-145 = type: functional, cell-based, Homo sapiens; conditions: Homo sapiens, DU-145
Description: SANGER: Inhibition of human DU-145 cell growth in a cell viability assay.

EW-11 = type: functional, cell-based, Homo sapiens; conditions: Homo sapiens, EW-11;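 further: growth inhibition of human EW-11 cells, measured with a cell viability assay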
Description: SANGER: Inhibition of human EW-11 cell growth in a cell viability assay.

GI-ME-N = type: functional, cell-based, Homo sapiens; conditions: Homo sapiens, GI-ME-N;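 further: growth inhibition of human GI-ME-N cells, read out with a cell viability assay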
Description: SANGER: Inhibition of human GI-ME-N cell growth in a cell viability assay.

GMS-10 = type: functional, cell-based, Homo sapiens; conditions: Homo sapiens, GMS-10;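 further: growth inhibition of GMS-10 cells, read out as cell viability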
Description: SANGER: Inhibition of human GMS-10 cell growth in a cell viability assay.

GT3TKB = type: functional, cell-based, Homo sapiens; conditions: Homo sapiens, GT3TKB;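 further: growth inhibition of the cell line, read out with a cell viability assay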
Description: SANGER: Inhibition of human GT3TKB cell growth in a cell viability assay.

HCC 2998 = type: functional, cell-based, Homo sapiens; conditions: Homo sapiens, HCC 2998;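 further: growth inhibition of human HCC2998 cells, measured with a cell viability read-out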
Description: SANGER: Inhibition of human HCC2998 cell growth in a cell viability assay.

HCT-116 = type: functional, cell-based, Homo sapiens; conditions: Homo sapiens, HCT-116
Description: SANGER: Inhibition of human HCT-116 cell growth in a cell viability assay.

HMV-2 cell line = type: functional, cell-based, Homo sapiens; conditions: Homo sapiens, HMV-2;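 further: growth inhibition of HMV-II cells, read out with a cell viability assay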
Description: SANGER: Inhibition of human HMV-II cell growth in a cell viability assay.

Huh-7 = type: functional, cell-based, Homo sapiens; conditions: Homo sapiens, Huh-7;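 further: HuH-7 cell growth inhibition, read out with a cell viability assay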
Description: SANGER: Inhibition of human HuH-7 cell growth in a cell viability assay.

IGR-1 = type: functional, cell-based, Homo sapiens; conditions: Homo sapiens, IGR-1;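 further: growth inhibition of human IGR-1 cells, read out with a cell viability assay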
Description: SANGER: Inhibition of human IGR-1 cell growth in a cell viability assay.

IST-MEL1 = type: functional, cell-based, Homo sapiens; conditions: Homo sapiens, IST-MEL1;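 further: growth inhibition of the cell line, read out with a cell viability assay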
Description: SANGER: Inhibition of human IST-MEL1 cell growth in a cell viability assay.

IST-MES1 = type: functional, cell-based, Homo sapiens; conditions: Homo sapiens, IST-MES1;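 further: growth inhibition of IST-MES1 cells, measured with a cell viability assay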
Description: SANGER: Inhibition of human IST-MES1 cell growth in a cell viability assay.

KINGS-1 = type: functional, cell-based, Homo sapiens; conditions: Homo sapiens, KINGS-1;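 further: cell viability assay measuring suppression of KINGS-1 cell growth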
Description: SANGER: Inhibition of human KINGS-1 cell growth in a cell viability assay.

KYSE-450 = type: functional, cell-based; conditions: Homo sapiens;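 further: cell growth inhibition measured by a viability assay in human KYSE-450 cells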
Description: SANGER: Inhibition of human KYSE-450 cell growth in a cell viability assay.

LB996-RCC = type: functional, cell-based; conditions: Homo sapiens
Description: SANGER: Inhibition of human LB996-RCC cell growth in a cell viability assay.

LCLC-103H cell line = type: functional, cell-based, Homo sapiens; conditions: Homo sapiens, LCLC-103H
Description: SANGER: Inhibition of human LCLC-103H cell growth in a cell viability assay.

LN-405 = type: functional, cell-based, Homo sapiens; conditions: Homo sapiens, LN-405
Description: SANGER: Inhibition of human LN-405 cell growth in a cell viability assay.

Lu-65 = type: functional, cell-based; conditions: Homo sapiens;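 further: growth inhibition of Lu-65 cancer cells, read out by a cell viability assay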
Description: SANGER: Inhibition of human LU-65 cell growth in a cell viability assay.

MIA PaCa-2 = type: functional, cell-based, Homo sapiens; conditions: Homo sapiens, MIA PaCa-2;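 further: growth inhibition of MIA PaCa-2 cells, read out with a cell viability assay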
Description: SANGER: Inhibition of human MIA-PaCa-2 cell growth in a cell viability assay.

MLMA = type: functional, cell-based, Homo sapiens; conditions: Homo sapiens, MLMA;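 further: growth inhibition of MLMA cells (human), determined through a cell viability readout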
Description: SANGER: Inhibition of human MLMA cell growth in a cell viability assay.

NB69 = type: functional, cell-based, Homo sapiens; conditions: Homo sapiens, NB69;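 further: growth inhibition of NB69 cells, determined by a cell viability assay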
Description: SANGER: Inhibition of human NB69 cell growth in a cell viability assay.

NCI-H1395 = type: functional, cell-based, Homo sapiens; conditions: Homo sapiens, NCI-H1395;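 further: cell viability assay read-out quantifying reduced proliferation of human NCI-H1395 cells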
Description: SANGER: Inhibition of human NCI-H1395 cell growth in a cell viability assay.

NCI-H1792 = type: functional, cell-based, Homo sapiens; conditions: Homo sapiens, NCI-H1792;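 further: growth inhibition of human NCI-H1792 cells, read out as cell viability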
Description: SANGER: Inhibition of human NCI-H1792 cell growth in a cell viability assay.

NCI-H1793 = type: functional, cell-based, Homo sapiens; conditions: Homo sapiens, NCI-H1793;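 further: cell growth inhibition, read out by a cell viability assay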
Description: SANGER: Inhibition of human NCI-H1793 cell growth in a cell viability assay.

NCI-H2122 = type: functional, cell-based, Homo sapiens; conditions: Homo sapiens, NCI-H2122;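 further: growth inhibition of the cells, read out with a cell viability assay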
Description: SANGER: Inhibition of human NCI-H2122 cell growth in a cell viability assay.

NCI-H2228 = type: functional, cell-based, Homo sapiens; conditions: Homo sapiens, NCI-H2228;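 further: growth inhibition of human NCI-H2228 cells, read out by a cell viability assay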
Description: SANGER: Inhibition of human NCI-H2228 cell growth in a cell viability assay.

NCI-H596 = type: functional, cell-based, Homo sapiens; conditions: Homo sapiens, NCI-H596;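 further: growth inhibition of NCI-H596 cells, read out with a cell viability assay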
Description: SANGER: Inhibition of human NCI-H596 cell growth in a cell viability assay.

NCI-H69 = type: functional, cell-based; conditions: Homo sapiens;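 further: growth inhibition of the cell line, read out with a cell viability assay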
Description: SANGER: Inhibition of human NCI-H69 cell growth in a cell viability assay.

NCI-H810 = type: functional, cell-based, Homo sapiens; conditions: Homo sapiens, NCI-H810;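 further: IC50 reflects inhibition of cancer cell line growth, read out with a cell viability assay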
Description: SANGER: Inhibition of human NCI-H810 cell growth in a cell viability assay.

NCI-N87 = type: functional, cell-based, Homo sapiens; conditions: Homo sapiens, NCI-N87;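 further: growth inhibition of human NCI-N87 cells, read out with a cell viability assay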
Description: SANGER: Inhibition of human NCI-N87 cell growth in a cell viability assay.

OMC-1 = type: functional, cell-based, Homo sapiens; conditions: Homo sapiens, OMC-1;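 further: growth inhibition of the OMC-1 cell line, measured by a cell viability assay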
Description: SANGER: Inhibition of human OMC-1 cell growth in a cell viability assay.

OVCAR-3 = type: functional, cell-based, Homo sapiens; conditions: Homo sapiens, OVCAR-3;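 further: growth inhibition of human OVCAR-3 cells, determined by a cell viability assay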
Description: SANGER: Inhibition of human OVCAR-3 cell growth in a cell viability assay.

QIMR-WIL = type: functional, cell-based; conditions: Homo sapiens;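 further: growth inhibition of QIMR-WIL cells, read out with a cell viability assay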
Description: SANGER: Inhibition of human QIMR-WIL cell growth in a cell viability assay.

SF-126 = type: functional, cell-based, Homo sapiens; conditions: Homo sapiens, SF-126;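 further: growth inhibition of human SF126 cells, read out with a cell viability assay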
Description: SANGER: Inhibition of human SF126 cell growth in a cell viability assay.

SW1990 = type: functional, cell-based, Homo sapiens; conditions: Homo sapiens, SW1990;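 further: cell growth inhibition determined with a viability assay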
Description: SANGER: Inhibition of human SW1990 cell growth in a cell viability assay.

SW684 = type: functional, cell-based, Homo sapiens; conditions: Homo sapiens, SW684;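 further: growth inhibition of human SW684 cells, measured by a cell viability assay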
Description: SANGER: Inhibition of human SW684 cell growth in a cell viability assay.

SW756 = type: functional, cell-based, Homo sapiens; conditions: Homo sapiens, SW756;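 further: growth inhibition of human SW756 cells, read out with a cell viability assay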
Description: SANGER: Inhibition of human SW756 cell growth in a cell viability assay.

SiHa = type: functional, cell-based, Homo sapiens; conditions: Homo sapiens, SiHa;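 further: Viability-based readout of growth inhibition in SiHa cells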
Description: SANGER: Inhibition of human SiHa cell growth in a cell viability assay.

5637 = type: functional, cell-based, Homo sapiens; conditions: Homo sapiens
Description: SANGER: Inhibition of human 5637 cell growth in a cell viability assay.

BFTC-909 = type: functional, cell-based, Homo sapiens; conditions: Homo sapiens, BFTC-909
Description: SANGER: Inhibition of human BFTC-909 cell growth in a cell viability assay.

C32 = type: functional, cell-based, Homo sapiens; conditions: Homo sapiens, C32;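 further: cell viability assay, with IC50 reflecting inhibition of C32 cell growth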
Description: SANGER: Inhibition of human C32 cell growth in a cell viability assay.

TGBC1TKB = type: functional, cell-based, Homo sapiens; conditions: Homo sapiens, TGBC1TKB;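 further: growth inhibition of TGBC1TKB cells, read out by a cell viability assay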
Description: SANGER: Inhibition of human TGBC1TKB cell growth in a cell viability assay.

UACC-257 = type: functional, cell-based, Homo sapiens; conditions: Homo sapiens, UACC-257
Description: SANGER: Inhibition of human UACC-257 cell growth in a cell viability assay.

VA-ES-BJ = type: functional, cell-based, Homo sapiens; conditions: Homo sapiens, VA-ES-BJ;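 further: growth inhibition of the VA-ES-BJ cell line, read out by a cell viability assay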
Description: SANGER: Inhibition of human VA-ES-BJ cell growth in a cell viability assay.

CHP-212 = type: functional, cell-based, Homo sapiens; conditions: Homo sapiens, CHP-212
Description: SANGER: Inhibition of human CHP-212 cell growth in a cell viability assay.

What does the source list for COC(=O)CNC(=O)C(=O)OC?
IC50 (COR-L88): 273 µM; IC50 (Ca-Ski): 157 µM; IC50 (Ca9-22): 924 µM; IC50 (DMS-273): 16 µM; IC50 (DOK): > 4000 µM; IC50 (DU-145): 825 µM; IC50 (EW-11): 1050 µM; IC50 (GI-ME-N): 2120 µM; IC50 (GMS-10): 2190 µM; IC50 (GT3TKB): 242 µM; IC50 (HCC 2998): 3160 µM; IC50 (HCT-116): 658 µM; IC50 (HMV-2 cell line): > 4000 µM; IC50 (Huh-7): 61.7 µM; IC50 (IGR-1): 1650 µM; IC50 (IST-MEL1): 573 µM; IC50 (IST-MES1): > 4000 µM; IC50 (KINGS-1): 585 µM; IC50 (KYSE-450): 2480 µM; IC50 (LB996-RCC): 6.59 µM; IC50 (LCLC-103H cell line): 880 µM; IC50 (LN-405): 1610 µM; IC50 (Lu-65): 2360 µM; IC50 (MIA PaCa-2): 139 µM; IC50 (MLMA): 46.3 µM; IC50 (NB69): 213 µM; IC50 (NCI-H1395): > 4000 µM; IC50 (NCI-H1792): 706 µM; IC50 (NCI-H1793): 2950 µM; IC50 (NCI-H2122): 74.4 µM; IC50 (NCI-H2228): 42.8 µM; IC50 (NCI-H596): > 4000 µM; IC50 (NCI-H69): > 4000 µM; IC50 (NCI-H810): 630 µM; IC50 (NCI-N87): 3950 µM; IC50 (OMC-1): 249 µM; IC50 (OVCAR-3): 206 µM; IC50 (QIMR-WIL): 424 µM; IC50 (SF-126): 220 µM; IC50 (SW1990): 441 µM; IC50 (SW684): 2470 µM; IC50 (SW756): 138 µM; IC50 (SiHa): 1180 µM; IC50 5637: 857 µM; IC50 (BFTC-909): 252 µM; IC50 (C32): > 4000 µM; IC50 (TGBC1TKB): 1790 µM; IC50 (UACC-257): 1090 µM; IC50 (VA-ES-BJ): 907 µM; IC50 (CHP-212): 181 µM

How did the IC50 (COR-L88) turn out when COc1cc([C@@H]2c3cc4c(cc3[C@@H](O[C@@H]3O[C@@H]5CO[C@@H](C)O[C@H]5[C@H](O)[C@H]3O)[C@H]3COC(=O)[C@H]23)OCO4)cc(OC)c1O [ETOPOSIDE] was run?
The IC50 was greater than 16 µM.

And the IC50 (Ca-Ski)?
The IC50 was 2.33 µM.

And the IC50 (Ca9-22)?
Its IC50 is 2.19 µM.

What about the IC50 (DMS-273) of the same compound?
The IC50 was 0.573 µM.

What about the IC50 (DOK) of the same compound?
Its IC50 is greater than 16 µM.

What about the IC50 (DU-145) of the same compound?
The IC50 was 0.591 µM.

What about the IC50 (EW-11) of the same compound?
The IC50 was 4.77 µM.

What about the IC50 (GI-ME-N) of the same compound?
Its IC50 is 9.83 µM.

And the IC50 (GMS-10)?
The IC50 was greater than 16 µM.

What about the IC50 (GT3TKB) of the same compound?
The IC50 was 0.406 µM.

What about the IC50 (HCC 2998) of the same compound?
The IC50 was 1.26 µM.

What about the IC50 (HCT-116) of the same compound?
The IC50 was 1.01 µM.

What about the IC50 (HMV-2 cell line) of the same compound?
The IC50 was 0.569 µM.

What about the IC50 (Huh-7) of the same compound?
The IC50 was 2.56 µM.

And the IC50 (IGR-1)?
The IC50 was 1.59 µM.

And the IC50 (IST-MEL1)?
Its IC50 is 3 µM.

What about the IC50 (IST-MES1) of the same compound?
Its IC50 is greater than 16 µM.

What about the IC50 (KINGS-1) of the same compound?
Its IC50 is greater than 16 µM.

What about the IC50 (KYSE-450) of the same compound?
The IC50 was 3.69 µM.

And the IC50 (LB996-RCC)?
The IC50 was greater than 16 µM.

What about the IC50 (LCLC-103H cell line) of the same compound?
The IC50 was 0.651 µM.

What about the IC50 (LN-405) of the same compound?
Its IC50 is greater than 16 µM.

What about the IC50 (Lu-65) of the same compound?
The IC50 was greater than 16 µM.

And the IC50 (MIA PaCa-2)?
Its IC50 is 2.66 µM.

What about the IC50 (MLMA) of the same compound?
Its IC50 is 3.38 µM.

What about the IC50 (NB69) of the same compound?
Its IC50 is 1.09 µM.

What about the IC50 (NCI-H1395) of the same compound?
The IC50 was greater than 16 µM.

And the IC50 (NCI-H1792)?
The IC50 was greater than 16 µM.

What about the IC50 (NCI-H1793) of the same compound?
Its IC50 is 5.31 µM.

And the IC50 (NCI-H2122)?
The IC50 was 5.39 µM.

What about the IC50 (NCI-H2228) of the same compound?
The IC50 was 2.66 µM.

What about the IC50 (NCI-H596) of the same compound?
Its IC50 is greater than 16 µM.

What about the IC50 (NCI-H69) of the same compound?
Its IC50 is 8.18 µM.

What about the IC50 (NCI-H810) of the same compound?
The IC50 was 1.58 µM.

And the IC50 (NCI-N87)?
Its IC50 is 15.8 µM.

And the IC50 (OMC-1)?
Its IC50 is greater than 16 µM.

What about the IC50 (OVCAR-3) of the same compound?
Its IC50 is greater than 16 µM.

And the IC50 (QIMR-WIL)?
The IC50 was 0.155 µM.

What about the IC50 (SF-126) of the same compound?
The IC50 was 1.44 µM.

And the IC50 (SW1990)?
The IC50 was 5.64 µM.

What about the IC50 (SW684) of the same compound?
The IC50 was greater than 16 µM.

What about the IC50 (SW756) of the same compound?
The IC50 was 2.98 µM.

And the IC50 (SiHa)?
The IC50 was greater than 16 µM.

And the IC50 5637?
Its IC50 is 0.867 µM.

And the IC50 (BFTC-909)?
The IC50 was 1.16 µM.

What about the IC50 (C32) of the same compound?
The IC50 was greater than 16 µM.

And the IC50 (TGBC1TKB)?
Its IC50 is greater than 16 µM.

What about the IC50 (UACC-257) of the same compound?
Its IC50 is greater than 16 µM.

What about the IC50 (VA-ES-BJ) of the same compound?
The IC50 was 0.415 µM.

What about the IC50 (CHP-212) of the same compound?
The IC50 was 1.41 µM.
